The target of this test is T1, human GPR119 (Homo sapiens, UniProt Q8TDV5).
T1 construct: expressed in transfected cells
T1 sequence (Q8TDV5 1-335): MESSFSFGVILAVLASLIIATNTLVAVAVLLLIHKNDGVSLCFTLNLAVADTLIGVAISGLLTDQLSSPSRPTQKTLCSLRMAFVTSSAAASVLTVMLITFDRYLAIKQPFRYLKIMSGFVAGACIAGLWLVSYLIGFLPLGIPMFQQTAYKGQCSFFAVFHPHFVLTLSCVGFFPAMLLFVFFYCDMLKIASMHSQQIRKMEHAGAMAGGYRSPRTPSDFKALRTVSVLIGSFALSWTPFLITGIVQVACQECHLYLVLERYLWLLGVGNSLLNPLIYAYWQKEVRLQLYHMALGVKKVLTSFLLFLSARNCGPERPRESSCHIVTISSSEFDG
Description: Functional cellular assay measuring GPR119-mediated cAMP release (HTRF). As to conditions: HEK-293 cell line stably expressing recombinant human GPR119; cAMP response, 30 minutes at room temperature. Type of test: cell-based. As to the method:
Functional Cellular Assays Measuring GPR119-Mediated cAMP Release
Compounds of the invention, which are agonists of GPR119, were characterized by functional assays measuring the cAMP response of HEK-293 cell lines stably expressing recombinant GPR119 from man, mouse or rat, or by using a hamster cell line HIT-T15 expressing GPR119 endogenously. The cAMP content was determined using a kit based on homogenous time-resolved fluorescence (HTRF) from Cisbio Corp. (cat. no. 62AM4PEC). For preparation, cells were split into T175 culture flasks and grown to near confluency in medium (DMEM/10% FCS for HEK-293 cells, and F-12K medium/10% horse serum/2.5% FCS for HIT-T15 cells, respectively). Medium was then removed and cells washed with PBS lacking calcium and magnesium ions, followed by proteinase treatment with accutase (Sigma-Aldrich, cat. no. A6964). Detached cells were washed and resuspended in assay buffer (1×HBSS; 20 mM HEPES, 0.1% BSA, 2 mM IBMX) and cellular density determined. They were then diluted to 400000 cells/mL and 25 μL-aliquots dispensed to the wells of 96-well plates. For measurement, 25 μL of test compound in assay buffer was added and incubated for 30 minutes at room temperature. After addition of HTRF reagents diluted in lysis buffer, the plates were incubated for 1 hour, followed by measuring the fluorescence ratio at 665 vs. 620 nm. Potency of the agonists was quantified by determining the concentrations that caused 50% of the maximal response/activation (EC50). See Table 4 for exemplary data obtained using the cell line expressing human GPR119.
With `CN(C)C(=O)CC1Cc2c(F)cc(N3CC[C@@H](Oc4ccc(OCC5CC5)nc4)C3=O)cc2C1=O` (stereo partly drawn) [Example 3-06, 2-[6-[(3R)-3-[[6-(cyclopropylmethoxy)-3-pyridyl]oxy]-2-oxo-pyrrolidin-1-yl]-4-fluoro-1-oxo-indan-2-yl]-N,N-dimethyl-acetamide], the EC50 was determined as 46 nM.
The value for `COC(=O)C[C@@H]1CC(=O)c2cc(N3CC[C@@H](Oc4ccc(OCC5CC5)nc4)C3=O)ccc21` [Example 1-14, methyl 2-[(1S)-5-[(3R)-3-[[6-(cyclopropylmethoxy)-3-pyridyl]oxy]-2-oxo-pyrrolidin-1-yl]-3-oxo-indan-1-yl]acetate] was 19 nM; that for `CN(C)C(=O)CC1CC(=O)c2cc(N3CC[C@@H](Oc4ccc(OCC5CC5)nc4)C3=O)ccc21` (stereo partly drawn) [Example 3-01, 2-[5-[(3R)-3-[[6-(cyclopropylmethoxy)-3-pyridyl]oxy]-2-oxo-pyrrolidin-1-yl]-3-oxo-indan-1-yl]-N,N-dimethyl-acetamide] was 82 nM; that for `O=C(CC1Cc2c(F)cc(N3CC[C@@H](Oc4ccc(OCC5CC5)nc4)C3=O)cc2C1=O)NCCO` (stereo partly drawn) [Example 3-09, 2-{6-[(R)-3-(6-cyclopropylmethoxy-pyridin-3-yloxy)-2-oxo-pyrrolidin-1-yl]-4-fluoro-1-oxo-indan-2-yl}-N-(2-hydroxy-ethyl)-acetamide] was 289 nM.
`COC(=O)CC1CC(=O)c2cc(N3CC[C@@H](Oc4ccc(Oc5ccc(F)cc5)cc4)C3=O)ccc21` (stereo partly drawn) [Example 1-03, methyl 2-[5-[(3R)-3-[4-(4-fluorophenoxy)phenoxy]-2-oxo-pyrrolidin-1-yl]-3-oxo-indan-1-yl]acetate]: the EC50 worked out at 111 nM.
The result for `COC(=O)CC1Cc2ccc(N3CC[C@@H](Oc4ccc(OCC5CC5)nc4)C3=O)cc2C1=O` (stereo partly drawn) [Example 1-12, methyl 2-[6-[(3R)-3-[[6-(cyclopropylmethoxy)-3-pyridyl]oxy]-2-oxo-pyrrolidin-1-yl]-1-oxo-indan-2-yl]acetate] reads 29 nM; that for `O=C(O)CC1CC(=O)c2cc(N3CC[C@@H](Oc4ccc(OCC5CC5)nc4)C3=O)ccc21` (stereo partly drawn) [Example 2-02, {5-[(R)-3-(6-Cyclopropylmethoxy-pyridin-3-yloxy)-2-oxo-pyrrolidin-1-yl]-3-oxo-indan-1-yl}-acetic acid], 135 nM; that for `COC(=O)C1Cc2ccc(N3CC[C@@H](Oc4ccc(OCC5CC5)nc4)C3=O)cc2C1=O` (stereo partly drawn) [Example 1-10, methyl 6-[(3R)-3-[[6-(cyclopropylmethoxy)-3-pyridyl]oxy]-2-oxo-pyrrolidin-1-yl]-1-oxo-indane-2-carboxylate], 41 nM.
The value for `COC(=O)CC1CC(=O)c2cc(N3CC[C@@H](Oc4ccc(OC5CC5)nc4)C3=O)cc(F)c21` (stereo partly drawn) [Example 1-11, methyl 2-[5-[(3R)-3-[[6-(cyclopropoxy)-3-pyridyl]oxy]-2-oxo-pyrrolidin-1-yl]-7-fluoro-3-oxo-indan-1-yl]acetate] was 38 nM; that for `O=C(CC1CC(=O)c2cc(N3CC[C@@H](Oc4ccc(OCC5CC5)nc4)C3=O)ccc21)NC1CC1` (stereo partly drawn) [Example 3-03, N-cyclopropyl-2-[5-[(3R)-3-[[6-(cyclopropylmethoxy)-3-pyridyl]oxy]-2-oxo-pyrrolidin-1-yl]-3-oxo-indan-1-yl]acetamide] was 339 nM.
`O=C(O)CC1CC(=O)c2cc(N3CC[C@@H](Oc4ccc(OCC5CC5)nc4)C3=O)cc(F)c21` (stereo partly drawn) [Example 2-03, 2-[5-[(3R)-3-[[6-(cyclopropylmethoxy)-3-pyridyl]oxy]-2-oxo-pyrrolidin-1-yl]-7-fluoro-3-oxo-indan-1-yl]acetic acid]: the EC50 came to 218 nM.
As for `CN(C)C(=O)CC1CC(=O)c2cc(N3CC[C@@H](Oc4ccc(OCC5CC5)nc4)C3=O)cc(F)c21` (stereo partly drawn) [Example 3-11, 2-[5-[(3R)-3-[[6-(cyclopropylmethoxy)-3-pyridyl]oxy]-2-oxo-pyrrolidin-1-yl]-7-fluoro-3-oxo-indan-1-yl]-N,N-dimethyl-acetamide], the EC50 turned out to be 59 nM.
The result for `CNC(=O)CC1Cc2c(F)cc(N3CC[C@@H](Oc4ccc(OCC5CC5)nc4)C3=O)cc2C1=O` (stereo partly drawn) [Example 3-08, 2-[6-[(3R)-3-[[6-(cyclopropylmethoxy)-3-pyridyl]oxy]-2-oxo-pyrrolidin-1-yl]-4-fluoro-1-oxo-indan-2-yl]-N-methyl-acetamide] reads 66 nM; that for `COC(=O)C[C@H]1CC(=O)c2cc(N3CC[C@@H](Oc4ccc(OCC5CC5)nc4)C3=O)ccc21` [Example 1-15, methyl 2-[(1R)-5-[(3R)-3-[[6-(cyclopropylmethoxy)-3-pyridyl]oxy]-2-oxo-pyrrolidin-1-yl]-3-oxo-indan-1-yl]acetate], 16 nM.
In the case of `O=C1CC(CO)c2ccc(N3CC[C@@H](Oc4ccc(OCC5CC5)nc4)C3=O)cc21` (stereo partly drawn) [Example 1-18, (3R)-3-[[6-(cyclopropylmethoxy)-3-pyridyl]oxy]-1-[1-(hydroxymethyl)-3-oxo-indan-5-yl]pyrrolidin-2-one], the EC50 turned out to be 198 nM.
The value for `COC(=O)CC1CC(=O)c2cc(N3CC[C@@H](Oc4ccc(OCC5CC5)nc4)C3=O)cc(F)c21` (stereo partly drawn) [Example 1-09, methyl 2-[5-[(3R)-3-[[6-(cyclopropylmethoxy)-3-pyridyl]oxy]-2-oxo-pyrrolidin-1-yl]-7-fluoro-3-oxo-indan-1-yl]acetate] was 12 nM.
The value for `O=C1c2cc(N3CC[C@@H](Oc4ccc(OCC5CC5)nc4)C3=O)cc(F)c2CC1CC(=O)N1CCOCC1` (stereo partly drawn) [Example 3-07, (3R)-3-[[6-(cyclopropylmethoxy)-3-pyridyl]oxy]-1-[7-fluoro-2-(2-morpholino-2-oxo-ethyl)-3-oxo-indan-5-yl]pyrrolidin-2-one] was 83 nM; that for `O=C1CC(CO)c2c(F)cc(N3CC[C@@H](Oc4ccc(OCC5CC5)nc4)C3=O)cc21` (stereo partly drawn) [Example 1-17, (3R)-3-[[6-(cyclopropylmethoxy)-3-pyridyl]oxy]-1-[7-fluoro-1-(hydroxymethyl)-3-oxo-indan-5-yl]pyrrolidin-2-one] was 72 nM; that for `COC(=O)CC1Cc2c(F)cc(N3CC[C@@H](Oc4ccc(OCC5CC5)nc4)C3=O)cc2C1=O` (stereo partly drawn) [Example 1-04, {6-[(R)-3-(6-cyclopropylmethoxy-pyridin-3-yloxy)-2-oxo-pyrrolidin-1-yl]-4-fluoro-1-oxo-indan-2-yl}-acetic acid methyl ester] was 14 nM.
With `COC(=O)CC1Cc2ccc(N3CCC(Oc4ccc(OCCC(C)C)cc4)C3=O)cc2C1=O` (stereo not shown) [Example 1-02, methyl 2-[6-[3-(4-isopentyloxyphenoxy)-2-oxo-pyrrolidin-1-yl]-1-oxo-indan-2-yl]acetate], the EC50 was 262 nM.
With `O=C(O)C[C@@H]1CC(=O)c2cc(N3CC[C@@H](Oc4ccc(OCC5CC5)nc4)C3=O)ccc21` [Example 2-05, 2-[(1S)-5-[(3R)-3-[[6-(cyclopropylmethoxy)-3-pyridyl]oxy]-2-oxo-pyrrolidin-1-yl]-3-oxo-indan-1-yl]acetic acid], the EC50 came to 1990 nM.
With `CNC(=O)CC1CC(=O)c2cc(N3CC[C@@H](Oc4ccc(OCC5CC5)nc4)C3=O)ccc21` (stereo partly drawn) [Example 3-02, 2-[5-[(3R)-3-[[6-(cyclopropylmethoxy)-3-pyridyl]oxy]-2-oxo-pyrrolidin-1-yl]-3-oxo-indan-1-yl]-N-methyl-acetamide], the EC50 is 188 nM.
